From patent publication US9730970B2, “Seaweed extracts, unsaturated aldehydes, and methods of treatment” (University of Florida Research Foundation, Inc., priority 2013, dated 2017) come the findings set out here.

The test concerns NQO1. As to the kind of experiment: qPCR of NQO1 transcription in IMR-32 cells. It is filed as cell-based, human. As for the experimental part: IMR-32 cells (1×10^6 cells/well) were seeded in 6-well plates one day before treatment. Cells were treated with variable concentrations of purified compounds 1-4 for 12 h. Total RNA was extracted with the RNeasy Mini Kit (Qiagen). cDNA was synthesized from 2 μg of total RNA by using SuperScript II Reverse Transcriptase (Invitrogen) and Oligo(dT)12-18 primer (Invitrogen). Real-time PCR was performed in triplicate using GAPDH expression as internal control for normalization.
(Real-time PCR tracks product formation cycle by cycle.)

In the case of `CC(C)(C)c1cc(O)ccc1O` [tBHQ, Tert-butylhydroquinone], the “activation of NQO1 transcription” value (positive control under identical conditions) is recorded as 5.9 fold.
For the compound `CCC(Cl)C(O)C(O)/C=C/C=C/C=O` (centres unmarked) [Compound 4, 8-chloro-6,7-dihydroxydeca-2,4-dienal], the “activation of NQO1 transcription” value (20 μg/mL, 12 h) is reported as 6.4 fold.
